From ChEMBL document CHEMBL1145886, “Design, synthesis, and biological evaluation of 6-substituted-3-(4-methanesulfonylphenyl)-4-phenylpyran-2-ones: a novel class of diarylheterocyclic selective cyclooxygenase-2 inhibitors” (J Med Chem, 2003)
Calls of active or inactive are those of the source. The rule behind the calls is not given here.

Experiments:
[1] = tested on: Rattus norvegicus; assay: In vivo antiinflammatory activity against rat carrageenan-induced foot paw edema model at 3 hr following a 1 mg/kg oral dose; type: functional
[2] = tested on: Rattus norvegicus; assay: In vivo antiinflammatory activity against rat carrageenan-induced foot paw edema model at 5 hr following a 1 mg/kg oral dose; type: functional
[3] = tested on: Rattus norvegicus; assay: Analgesic activity was determined in rat using 4% sodium chloride-induced abdominal constriction assay at a duration of 30 min following a 1 mg/kg intraperitoneal dose; type: functional; settings: Abdomen, ip, 0.5 h
[4] = tested on: Rattus norvegicus; assay: Analgesic activity was determined in rat using 4% sodium chloride-induced abdominal constriction assay at a duration of 60 min following a 1 mg/kg intraperitoneal dose; type: functional; settings: Abdomen, ip, 1 h
[5] = biological target: T1, Prostaglandin G/H synthase 1 (Ovis aries, UniProt P05979)
T1 sequence (P05979 whole entry): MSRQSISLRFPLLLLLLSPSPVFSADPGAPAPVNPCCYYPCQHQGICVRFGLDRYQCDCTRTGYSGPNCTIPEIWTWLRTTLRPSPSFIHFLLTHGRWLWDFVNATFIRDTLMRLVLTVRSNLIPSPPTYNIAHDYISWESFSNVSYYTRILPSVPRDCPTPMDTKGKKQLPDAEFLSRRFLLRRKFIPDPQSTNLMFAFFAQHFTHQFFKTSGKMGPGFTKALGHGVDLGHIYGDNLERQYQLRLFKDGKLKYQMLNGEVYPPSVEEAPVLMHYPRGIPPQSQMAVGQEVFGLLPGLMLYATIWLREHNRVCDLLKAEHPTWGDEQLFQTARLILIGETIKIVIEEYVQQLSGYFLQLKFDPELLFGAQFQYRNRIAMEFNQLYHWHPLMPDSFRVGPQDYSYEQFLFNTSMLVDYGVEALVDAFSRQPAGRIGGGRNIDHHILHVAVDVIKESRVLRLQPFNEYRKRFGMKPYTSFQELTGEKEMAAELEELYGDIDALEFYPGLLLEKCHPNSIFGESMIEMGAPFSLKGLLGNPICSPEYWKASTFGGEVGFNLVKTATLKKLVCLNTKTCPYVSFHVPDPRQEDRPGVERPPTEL
Description: In vitro inhibitory activity against Prostaglandin G/H synthase 1 (COX-1)

[6] = biological target: T2, Prostaglandin G/H synthase 2 (Bos taurus, UniProt O62698)
T2 sequence (O62698 whole entry): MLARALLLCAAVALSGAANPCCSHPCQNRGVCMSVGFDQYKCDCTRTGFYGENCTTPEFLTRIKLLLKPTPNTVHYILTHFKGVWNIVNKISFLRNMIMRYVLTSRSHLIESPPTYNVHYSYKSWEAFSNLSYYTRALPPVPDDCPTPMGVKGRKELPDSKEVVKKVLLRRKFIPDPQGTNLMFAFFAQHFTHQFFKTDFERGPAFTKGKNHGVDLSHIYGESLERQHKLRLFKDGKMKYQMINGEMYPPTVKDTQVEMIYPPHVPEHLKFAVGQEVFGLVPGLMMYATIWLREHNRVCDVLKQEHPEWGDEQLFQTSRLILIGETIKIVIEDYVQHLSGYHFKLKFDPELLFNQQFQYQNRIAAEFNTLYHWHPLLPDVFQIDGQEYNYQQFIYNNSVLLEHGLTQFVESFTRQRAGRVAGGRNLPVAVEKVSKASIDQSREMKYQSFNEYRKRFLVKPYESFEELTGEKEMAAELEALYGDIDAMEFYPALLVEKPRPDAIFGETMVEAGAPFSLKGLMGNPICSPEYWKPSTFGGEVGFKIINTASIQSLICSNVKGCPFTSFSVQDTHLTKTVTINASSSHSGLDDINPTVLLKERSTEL
Description: In vitro inhibitory activity against prostaglandin G/H synthase 2 (COX-2)

[7] = tested on: Rattus norvegicus; assay: In vivo antiinflammatory activity against rat carrageenan-induced foot paw edema model at 3 hr following a 1 mg/kg oral dose; NA is inactive; type: functional, organism-based; set-up: dose 1 mg/kg; settings: at 1 mg/kg

Row | Compound | inhibition in vivo at 1 mg/kg [1] [%] | inhibition in vivo at 1 mg/kg [2] [%] | inhibition in vivo at 1 mg/kg [3] [%] | inhibition in vivo at 1 mg/kg [4] [%] | IC50 [5] [µM] | IC50 [6] [µM] | inhibition [7]
1 | CCOc1cc(-c2ccc(F)cc2)c(-c2ccc(S(C)(=O)=O)cc2)c(=O)o1 | 32.7 | 67.8 | 42.8 | 75.7 | 288 | 0.1 | 
2 | CCSc1cc(-c2ccccc2)c(-c2ccc(S(C)(=O)=O)cc2)c(=O)o1 | 9.2 | 19.5 | 81 | 77.4 |  |  | 
3 | COc1cc(-c2ccccc2)c(-c2ccc(S(C)(=O)=O)cc2)c(=O)o1 |  | 22 | 55.2 | 83.4 |  |  | inactive
4 | CCSc1cc(-c2ccc(F)cc2)c(-c2ccc(S(C)(=O)=O)cc2)c(=O)o1 | 25.8 | 16.8 | 54.3 | 66 | > 100 | 1.44 | 
5 | CC(C)COc1cc(-c2ccccc2)c(-c2ccc(S(C)(=O)=O)cc2)c(=O)o1 |  |  |  |  | 3.1 | 1.8 | 
6 | CC(C)(C)Oc1cc(-c2ccc(F)cc2)c(-c2ccc(S(C)(=O)=O)cc2)c(=O)o1 |  |  |  |  | 68.5 | 20.4 | 
7 | CC(C)c1cc(-c2ccc(F)cc2)c(-c2ccc(S(C)(=O)=O)cc2)c(=O)o1 | 35.8 | 69.1 | 50.9 | 20.7 | 15.7 | 13.6 | 
8 | CC(C)COc1cc(-c2ccc(F)cc2)c(-c2ccc(S(C)(=O)=O)cc2)c(=O)o1 |  |  |  |  | 42.6 | 35 | 
9 | CS(=O)(=O)c1ccc(-c2c(-c3ccccc3)cc(OCc3ccc(Cl)cc3)oc2=O)cc1 |  |  |  |  | 50.7 | 416 | 
10 | CC(C)(C)Oc1cc(-c2ccccc2)c(-c2ccc(S(C)(=O)=O)cc2)c(=O)o1 | 29 | 30.1 | 73.8 | 80.9 | > 100 | 2.7 | 
11 | Cc1ccc(-c2cc(C(F)(F)F)nn2-c2ccc(S(N)(=O)=O)cc2)cc1 [CELECOXIB] | 79.9 | 58.2 | 31.7 | 62 |  |  | 
12 | Cc1cc(-c2ccccc2)c(-c2ccc(S(C)(=O)=O)cc2)c(=O)o1 | 12.5 | 23.5 | 57 | 60.4 |  |  | 
13 | CC(C)Cc1ccc(C(C)C(=O)O)cc1 (stereo not drawn) [IBUPROFEN] | 56.2 | 41.5 |  |  |  |  | 
14 | CS(=O)(=O)c1ccc(-c2c(-c3ccc(F)cc3)cc(OCc3ccc(Cl)cc3)oc2=O)cc1 |  |  |  |  | 301 | 53.3 | 
15 | Cc1cc(-c2ccc(F)cc2)c(-c2ccc(S(C)(=O)=O)cc2)c(=O)o1 |  |  |  |  | 201 | 125 | 
16 | CC(C)Oc1cc(-c2ccc(F)cc2)c(-c2ccc(S(C)(=O)=O)cc2)c(=O)o1 |  |  |  |  | 560 | 83.6 | 
17 | CCCSc1cc(-c2ccccc2)c(-c2ccc(S(C)(=O)=O)cc2)c(=O)o1 |  |  |  |  | > 100 | > 100 | 
18 | COc1cc(-c2ccc(F)cc2)c(-c2ccc(S(C)(=O)=O)cc2)c(=O)o1 | 30.6 | 30 | 49 | 72.6 | > 1000 | 59.5 | 
19 | CC(C)c1cc(-c2ccccc2)c(-c2ccc(S(C)(=O)=O)cc2)c(=O)o1 | 9.8 | 19.5 | 67.8 | 56.9 |  |  | 
